# Results published in patent US20140308313A1 (priority 2006, published 2014).
# Tested on: IgG1 and IgG2a antibodies to TT
# Design: species or system mice
# Conditions: mouse, in vivo
compound,measurement,value
"CCCCCCCCCCCCCCCCCCCCCCCCCC(=O)N[C@@H](CO[C@H]1OC(CO)[C@H](O)C(O)C1O)[C@H](O)[C@@H](O)CCCCCCCCCCCCCC (stereo partly drawn) [α-GC, α-galactosylceramide]","production of IgG1 and IgG2a antibodies compared to CFA, CpG, MF59 and Alum",overall as potent as the above benchmark adjuvants
